US20090068687A1, “Screening platform for discovery of immunomodulatory activities in traditional medicine” (The Hong Kong Polytechnic University, priority 2004, published 2009)

Legend:
Assay type in all cases: cell-based, rat
[1] = tested on: TNF-α; test: Western blotting of TNF-α secretion in culture medium of Rg1-stimulated splenocytes; details: 5 μg/ml Rg1, culture medium
Procedure: (§1) Rats were placed under deep ether anesthesia and exsanguinated via the abdominal aorta. Spleen was removed by aseptic techniques before washed twice in 10 mL of RPMI-1640 (Gibco, U.S.A.) medium containing 1000 U/mL penicillin-streptomycin (PS) (Gibco, U.S.A.). Spleens were then cut into small pieces before being sucked up and down with a plunger in a plastic syringe. Single cell suspension was prepared and placed into the same medium containing 1000 U/mL PS, and 5% acid citric dextrose. Splenocytes were then isolated by gradient centrifugation by layering the single cell suspension onto Ficoll-Paque Plus gradient (Amersham Bioscience, H.K. Ltd.) and spun at 400 g for 35 minutes at room temperature. The splenocytes-containing fraction was collected. […]
(§2) Supernatants of splenocytes cell culture with and without Rg1 incubation were harvested at different time points and used for the detection of TNF-α and IFN-γ. […] The protein content of the supernatant/lysate was determined by the Bradford method (Bio-Rad Laboratory, U.S.A.). For each analysis, 350 μg of protein was analyzed by a 12.5% reducing SDS-PAGE gel ran at a constant voltage (150V) for 1 hour. […] Positive binding was detected using the SuperSignal West Pico Chemiluminescent Kit (Pierce, U.S.A.) and the exposed X-ray films (Kodak) were scanned with a Molecular Dynamics Densitometer (Bio-Rad Laboratories, U.S.A.).

[2] = tested on: IFN-γ; test: ELISA of IFN-γ secretion from splenocytes with and without Rg1
Procedure: as §1, with “collected. Erythrocytes were lyzed by adding four volumes of ice-cold ammonium chloride solution (pH 7.4) at room temperature for 5 minutes and splenocytes were washed twice in plain medium.” for “collected.”
(§3) IFN-γ as well as TNF-α ELISA assays were performed using the OptiEIATM rat IFN-γ and TNF-α kits (Pharmigen, U.S.A.). […] After the addition of avidin-HRP conjugate, color was developed by the addition of 2,2-Azin-bis-3-thylbenzthiazoline-6-sulfonic acid and the color change was monitored at an absorbance of 405 nm with a Microplate Reader (Bio-Rad Laboratories, U.S.A.) The amount of INF-γ and TNF-α were calculated by comparing with the standard.

[3] = tested on: TNF-α; test: ELISA of TNF-α secretion from splenocytes with and without Rg1
Procedure: as §1, with “collected. Erythrocytes were lyzed by adding four volumes of ice-cold ammonium chloride solution (pH 7.4) at room temperature for 5 minutes and splenocytes were washed twice in plain medium.” for “collected.”
as §3

[4] = tested on: iNOS; test: Western blotting of iNOS expression in splenocyte lysate after Rg1 stimulation; details: 5 μg/ml Rg1, splenocyte lysate
Procedure: as §1, §2

[5] = tested on: splenocytes; test: 2-DE (Two-in-one gel) / MALDI-TOF MS analysis of differential protein expression in splenocyte lysates
Procedure: Rats were placed under deep ether anesthesia and exsanguinated via the abdominal aorta. Spleen was removed by aseptic techniques before washed twice in 10 mL of RPMI-1640 (Gibco, U.S.A.) medium containing 1000 U/mL penicillin-streptomycin (PS) (Gibco, U.S.A.). Spleens were then cut into small pieces before being sucked up and down with a plunger in a plastic syringe. Single cell suspension was prepared and placed into the same medium containing 1000 U/mL PS, and 5% acid citric dextrose. Splenocytes were then isolated by gradient centrifugation by layering the single cell suspension onto Ficoll-Paque Plus gradient (Amersham Bioscience, H.K. Ltd.) and spun at 400 g for 35 minutes at room temperature. The splenocytes-containing fraction was collected. Erythrocytes were lyzed by adding four volumes of ice-cold ammonium chloride solution (pH 7.4) at room temperature for 5 minutes and splenocytes were washed twice in plain medium. Lymphocytes were stained with Wright-Giema stain before examination under light microscope. Cell viability and number were examined after trypan blue staining under the light microscope. Splenocytes (1×10^6) were cultured in complete RPMI-1640 medium containing 1000 U/mL PS, supplemented with 2 g/L sodium carbonate. Cells were re-suspended in the same medium with 10% FCS (Gibco, U.S.A.) and subjected to various treatments after 24 hours incubation.
Rg1 (dosage of 5 μg/mL) was added to splenocytes in PBS buffer in 6-well flat-bottomed plates (Nunc Maxisorp, U.S.A.) in a 5% CO2 incubator at 37° C. Samples of conditioned media from the incubation mixture were harvested at varying time points (from 12-72 hours). These samples were kept at −80° C. until use. No sample was kept for more than 2 months. Besides Western Blotting, global protein expression in samples of Rg1 treated splenocytes (at 12 hours and 24 hours intervals) were also performed using 2-DE analysis. Cells incubated with PBS for 24 hours were used as control.
Splenocytes on culture dishes were rinsed once with RPMI-1640 after incubation with or without Rg1. Subsequently, […] trypsin containing 0.2 g/L EDTA was added and allowed to incubate for 3 min. Cells were then collected by centrifugation at 1,000 g for 5 minutes and washed with PBS (pH 7.2) twice. Splenocytes were then lysed with a minimal amount of lysis buffer (usually 200 μl) containing 4% Triton X-100, 9 M urea, and 1 mM PMSF for 10 minutes on ice. The supernatant was collected by centrifugation at 3,000 g for 10 minutes and protein contents were measured by a modified Bradford method using a protein assay kit by Bio-Rad Laboratories, U.S.A. Cell lysates from different animals with the same treatment were pooled together at a protein ratio of 1:1 and was used for 2-DE analysis. 120 μg of splenocytes lysate [in a buffer containing 9M Urea, 2% w/v Triton X-100, 0.5% w/v DDT (Sigma, U.S.A.), 0.4% v/v IPG buffer 4-7 (Amersham Pharmacia Biotech, Uppsala, Sweden) and trace amount of bromophenol blue to a final volume of 300 μl] was used for in-gel sample rehydration.
Samples were applied onto IPG strips pH 4-7 (3×170 mm, Bio-Rad Laboratories, U.S.A.). Rehydration and subsequent isoelectric focusing was performed using either a Protean IEF Cell (Bio-Rad Laboratories, U.S.A.) or an IPGphor (Amersham Biosciences, U.S.A.). Rehydration was performed at room temperature for 16 hour at 50 V in the IPG strip holder covered with low viscosity paraffin oil. Isoelectric focusing was then performed using 500 V (1 hour), 1000 V (1 hour), 4000 V (2 hour) and 8000 V (2 hour) sequentially. Strips were then equilibrated in […] Tris-HCl equilibration buffer, pH 6.8, containing 1% (w/v) DTT (Sigma, U.S.A.), 9M urea, 30% v/v glycerol, 2% w/v SDS and a trace amount of bromophenol blue for 10 minutes. […]

[6] = tested on: IFN-γ; test: Western blotting of IFN-γ secretion in culture medium of Rg1-stimulated splenocytes; details: 5 μg/ml Rg1, culture medium, 24 hour
Procedure: as §1, §2

[7] = 5 μg/mL Rg1, ELISA time course 12-72 hours
[8] = 5 μg/mL Rg1, ELISA, versus splenocytes without Rg1
[9] = Rg1 24 hours versus PBS control
[10] = Rg1 treated versus normal sample, Two-in-one gels

- Regulation of Alpha-mannosidase II (spot 6) [5, 9]: Up-
- Regulation of Cytochrome C oxidase polypeptide IV precursor (spot 2) [5, 9]: Up-
- Regulation of DNA polymerase beta (spot 3) [5, 9]: Up-
- Regulation of Guanine nucleotide-binding protein G (spot 4) [5, 9]: Up-
SMILES: CC(C)=CCC[C@](C)(O[C@@H]1O[C@H](CO)[C@@H](O)[C@H](O)[C@H]1O)[C@H]1CC[C@]2(C)[C@@H]1[C@H](O)C[C@@H]1[C@@]3(C)CC[C@H](O)C(C)(C)[C@@H]3[C@@H](O[C@@H]3O[C@H](CO)[C@@H](O)[C@H](O)[C@H]3O)C[C@]12C [Rg1]
- TNF-α detection by Western blotting ([1]; 24 hour): detected
- TNF-α detection by Western blotting ([1]; 48 hour): detected
- incubation time at which IFN-γ level reached a maximum [2, 7]: 24 h
- increase in quantity of IFN-γ after Rg1 induction [2, 8]: more than 1000 fold
- incubation time at which TNF-α level reached a maximum [3, 7]: 24 h
- increase in quantity of TNF-α after Rg1 induction [3, 8]: more than 1000 fold
- iNOS detection by Western blotting ([4]; 12 hour): detected
- iNOS detection by Western blotting ([4]; 24 hour): detected
- number of protein spots detected on the gel half run with the Rg1 treated sample ([5]; 24 hours incubation with Rg1, about 102 spots in normal sample): 122
- Regulation of Homeotic protein LH-2 (spot 1) [5, 9]: Up-
- Regulation of T-cell surface glycoprotein CD5 precursor (spot 5) [5, 9]: Up-
- number of protein spots down-regulated [5, 10]: 38
- number of proteins up-regulated [5, 10]: 87
- number of spots without significant apparent changes [5, 10]: 38
- IFN-γ detection by Western blotting [6]: detected
